Assay results reported in PMC4786642, “Catch-bond mechanism of the bacterial adhesin FimH” (Nature Communications, 2016).
Where two headings read alike, the source gives them in different places.

How the values were obtained:
[1] = target: T1, FimH^K12·DsG (Escherichia coli, UniProt P08191); format: binding, E. coli strain K12; details: for Kd: HM, FimH^K12·DsG
T1 construct: those of the corresponding full-length FimH·DsG complexes; made in house; host or cells: E. coli HM125 (periplasm); DsG peptide synthetic, from JPT
T1 sequence (P08191 22-300, other chains not shown): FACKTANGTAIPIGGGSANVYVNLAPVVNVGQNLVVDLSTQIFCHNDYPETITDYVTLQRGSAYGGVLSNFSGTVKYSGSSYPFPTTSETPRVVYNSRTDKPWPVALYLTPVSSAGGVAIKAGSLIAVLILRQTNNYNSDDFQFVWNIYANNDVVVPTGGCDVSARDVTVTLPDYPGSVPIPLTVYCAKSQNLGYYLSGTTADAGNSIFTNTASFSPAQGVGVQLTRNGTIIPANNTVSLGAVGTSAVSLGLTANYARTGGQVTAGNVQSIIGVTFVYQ
Protocol: A constant FimH·DsG concentration of 1 or 2 μM was used. […] The fluorescence traces were globally fitted with Dynafit[59] according to a second-order binding and first-order dissociation reaction.

[2] = target: T1, FimH^K12·DsG; format: binding, E. coli strain K12; details: HM, FimH^K12·DsG
Protocol: (§1) Measurements were performed with a stirred 1 × 0.4-cm quartz cuvette. […] The samples were equilibrated overnight, and their fluorescence intensities were recorded for 30 s and averaged.

[3] = target: FimH^K12·DsG; format: binding, E. coli strain K12; details: HM, FimH variant K12
Protocol: as §1

[4] = target: T2, FimH^F18·DsG (Escherichia coli, UniProt P08191, N91S/S99N/V48A); details: HM; for Kd: FimH^F18·DsG
T2 sequence (P08191 22-300 V48A/N91S/S99N, other chains not shown): as the sequence (P08191 22-300, other chains not shown) above, with V27A, N70S, S78N counted along it
Protocol: as §1

[5] = system: FimH^F18-Ala188Asp-piliated E. coli; assay: Cell tracking on mannose-BSA-coated surfaces, static conditions; format: cell-based; details: in the presence of 200 μM HM; FimH^F18-Ala188Asp-piliated bacteria
Excerpt: (§2) The E. coli KB18 strain[67] was kindly provided by Professor Evgeni Sokurenko and served as host for the generation of recombinant strains. KB18 contains the pPKL114 plasmid, which encodes the whole fim operon with a translational stop linker upstream of the fimH gene. KB18 was co-transformed with the pGB2-24 plasmid, which was isolated from the ELT115 strain and encodes fimH^J96 (kindly provided by Professor Evgeni Sokurenko). Single-nucleotide point mutations were introduced in fimH^J96 using overlap extension PCR following standard molecular techniques to obtain fimH^F18 and fimH^F18-Ala188Asp. The PCR products were cloned into pGB2-24 by the ApaLI and SphI sites, and KB18 was transformed with the resulting plasmid. […]
(§3) Cell tracking was carried out at room temperature under static conditions. […] Time-lapse movies were recorded with a × 20 phase contrast objective using a CMOS digital camera (The Imaging Source Europe, Bremen, Germany) mounted on a Nikon Ti Eclipse inverted microscope and using the NIS Elements Basic Research software (Nikon, Zurich, Switzerland). […] Five to seven independent movies were recorded for each experimental set-up: FimH^F18 or FimH^F18-Ala188Asp on 1M-BSA-coated dishes and FimH^F18 and FimH^F18-Ala188Asp on BSA-coated cell culture dishes. […]

[6] = system: FimH^F18-piliated E. coli; assay: as above; format: cell-based; details: in the presence of 200 μM HM; FimH^F18-piliated bacteria
Excerpt: as §2, §3

[7] = system: E. coli piliated with FimH^F18 or FimH^F18-Ala188Asp; assay: Cell tracking on mannose-BSA-coated surfaces, static conditions (strain not separated); format: cell-based
Excerpt: The E. coli KB18 strain[67] was kindly provided by Professor Evgeni Sokurenko and served as host for the generation of recombinant strains. KB18 contains the pPKL114 plasmid, which encodes the whole fim operon with a translational stop linker upstream of the fimH gene. KB18 was co-transformed with the pGB2-24 plasmid, which was isolated from the ELT115 strain and encodes fimH^J96 (kindly provided by Professor Evgeni Sokurenko). Single-nucleotide point mutations were introduced in fimH^J96 using overlap extension PCR following standard molecular techniques to obtain fimH^F18 and fimH^F18-Ala188Asp. The PCR products were cloned into pGB2-24 by the ApaLI and SphI sites, and KB18 was transformed with the resulting plasmid.
E. coli strains were grown from frozen stocks in LB medium supplemented with antibiotics (100 μg ml^−1 ampicillin and 25 μg ml^−1 chloramphenicol) until late log phase (OD600 of 1.0–1.2) and diluted to an OD600 of 0.01 before movie acquisition.
Cell culture dishes (35 mm, Corning Inc., Corning, NY) were incubated with 50 μl of 50 μg ml^−1 1M-BSA in 0.02 M bicarbonate buffer for 75 min at 37 °C. The dishes were then washed three times and quenched with 0.1% PBS–BSA to remove unbound 1M-BSA and block remaining sites on the plastic surface to prevent nonspecific binding of bacteria. Controls were prepared by treating cell culture dishes with 0.1% PBS–BSA only. The bacterial suspension was added to the cell culture dishes for microscopy studies.
Cell tracking was carried out at room temperature under static conditions. A bacterial suspension of 50 μl in the late logarithmic growth phase was placed onto the cell culture dishes (diluted to OD600 of 0.01), and a cover slide was placed on top. The delay between sample placement and start of the movie acquisition was about 1 min. Time-lapse movies were recorded with a × 20 phase contrast objective using a CMOS digital camera (The Imaging Source Europe, Bremen, Germany) mounted on a Nikon Ti Eclipse inverted microscope and using the NIS Elements Basic Research software (Nikon, Zurich, Switzerland). Phase contrast images in an ∼5-μm-thick surface layer were taken at four to five frames per second over 5 min. The dead time of movie acquisition was ∼1 min. The resulting images were segmented by creating a projection of the average intensities over all frames to remove the background and by subsequent thresholding using the Maximum Entropy method in Fiji[68] to obtain binary images (examples shown in Supplementary Movies 1 and 2). […] Five to seven independent movies were recorded for each experimental set-up: FimH^F18 or FimH^F18-Ala188Asp on 1M-BSA-coated dishes and FimH^F18 and FimH^F18-Ala188Asp on BSA-coated cell culture dishes. […]

[8] = target: T2, FimH^F18·DsG; details: for Kd: HM, FimH^F18·DsG
[9] = target: T3, FimHL^K12 (Escherichia coli, UniProt P08191); details: HM
T3 sequence (P08191 22-180): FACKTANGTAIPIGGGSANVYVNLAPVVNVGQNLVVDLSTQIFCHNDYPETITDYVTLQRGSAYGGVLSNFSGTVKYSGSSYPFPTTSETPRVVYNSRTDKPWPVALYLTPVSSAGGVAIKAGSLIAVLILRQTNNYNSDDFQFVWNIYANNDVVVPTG

[10] = target: T4, FimHL^F18 (Escherichia coli, UniProt P08191, N91S/S99N/V48A); details: HM
T4 sequence (P08191 22-180 V48A/N91S/S99N): as the sequence (P08191 22-180) above, with V27A, N70S, S78N counted along it

[11] = target: T3, FimHL^K12
[12] = target: T4, FimHL^F18
[13] = target: T3, FimHL^K12; assay: Equilibrium titration of FimHL with GN-FP-4 (fluorescence); format: binding, E. coli strain K12; set-up: The isolated lectin domains (residues 1–159) of both FimH variants; made in house; host or cells: E. coli HM125 (periplasm)
Protocol: (§4) The concentration of GN-FP-4 was kept constant at 1.0 or 2.0 nM and the concentration of FimHL was varied between 0 and 10 nM. The samples were equilibrated overnight, and their fluorescence intensities at 520 nm were recorded for 30 s and averaged. The experimental data were fitted according to equation (2).

[14] = target: T4, FimHL^F18; assay: as above; format: binding, E. coli strain F18; set-up: The isolated lectin domains (residues 1–159) of both FimH variants; made in house; host or cells: E. coli HM125 (periplasm), plasmid pfimHL^F18
Protocol: as §4

`CCCCCCCO[C@H]1O[C@H](CO)[C@@H](O)[C@H](O)[C@@H]1O` [HM, n-heptyl α-D-mannoside] was tested, and the “kon (M^−1 s^−1)” value ([1]; HM binding to FimH^K12·DsG, pH 7.4, 25 °C) was 5.0±0.1 × 10^6 M^−1 s^−1, the “koff (s^−1)” value ([1]; HM dissociation from FimH^K12·DsG, pH 7.4, 25 °C) was 2.2±0.1 × 10^1 s^−1 and the Kd ([1]; pH 7.4, 25 °C, ratio of rate constants, read-out: koff/kon) was 4.3 µM. For the same molecule, the Kd ([1]; pH 7.4, 25 °C, stopped-flow amplitudes, read-out: Kd (amplitude analysis; M)) was 4.2 µM, the Kd ([1]; read-out: Kd (amplitudes of stopped-flow reactions)) was 4.2 ± 0.3 µM and the Kd ([2]; equilibrium titration, read-out: equilibrium dissociation constant (Kd)) was 3.6 µM. For the same molecule, the Kd ([2]; pH 7.4, 25 °C, read-out: Kd (equilibrium titration; M)) was 3.6 µM, the “Kd (FimH·DsG)/Kd (FimHL)” value [3] was 3,300 and the “Kd (FimH·DsG)/Kd (FimHL)” value ([4]; FimH variant F18) was 3,300. The Kd ([4]; read-out: Kd (equilibrium titration; M), pH 7.4, 25 °C) was 9.9 µM, the Kd ([4]; read-out: equilibrium dissociation constant (Kd), equilibrium titration) was 9.9 µM and the “mean velocity on 1M-BSA” value [5] was 5.9 μm s^−1. The “mean velocity on 1M-BSA” value [6] was 6.5 μm s^−1, the “reduction of permanent attachment to 1M-BSA” value ([7]; in the presence of 200 μM HM) was 85% and the “reduction of transient attachment to 1M-BSA” value ([7]; in the presence of 200 μM HM) was 75%. The “transient and permanent attachment to 1M-BSA” value ([7]; in the presence of HM) was “significantly reduced”, the “bacterial velocity on 1M-BSA” value ([7]; upon addition of 100 µM HM) was “increased” and the “kon (M^−1 s^−1)” value ([8]; HM binding to FimH^F18·DsG, pH 7.4, 25 °C) was 4.9±0.1 × 10^6 M^−1 s^−1. For the same molecule, the “koff (s^−1)” value ([8]; HM dissociation from FimH^F18·DsG, pH 7.4, 25 °C) was 5.8±0.1 × 10^1 s^−1, the Kd ([8]; read-out: Kd (amplitude analysis; M), pH 7.4, 25 °C, stopped-flow amplitudes) was 12 µM and the Kd ([8]; read-out: Kd (amplitudes of stopped-flow reactions), amplitude analysis) was 12 ± 1 µM. The Kd ([8]; read-out: koff/kon, pH 7.4, 25 °C, ratio of rate constants) was 12 µM, the Kd ([9]; FimHL^K12, displacement of GN-FP-4) was 1.1 nM and the Kd ([9]; read-out: Kd (equilibrium titration; M), FimHL^K12, pH 7.4, 25 °C, from competition equilibria with GN-FP-4) was 1.1 nM. For the same molecule, the Kd ([10]; FimHL^F18, displacement of GN-FP-4) was 3 nM, the Kd ([10]; read-out: Kd (equilibrium titration; M), FimHL^F18, pH 7.4, 25 °C, from competition equilibria with GN-FP-4) was 3 nM and the “kon (M^−1 s^−1)” value ([11]; HM binding to FimHL^K12, pH 7.4, 25 °C, calculated with koff and Kd) was 1.8±0.6 × 10^5(d) M^−1 s^−1. The “koff (s^−1)” value ([11]; HM dissociation from FimHL^K12, pH 7.4, 25 °C) was 2.0±0.4 × 10^−4 s^−1, the “kon (M^−1 s^−1)” value ([12]; HM binding to FimHL^F18, pH 7.4, 25 °C, calculated with koff and Kd) was 1.2±0.4 × 10^5(d) M^−1 s^−1 and the “koff (s^−1)” value ([12]; HM dissociation from FimHL^F18, pH 7.4, 25 °C) was 3.5±0.8 × 10^−4 s^−1.
With `O=C(NCCNC(=S)Nc1ccc2c(c1)C(=O)OC21c2ccc(O)cc2Oc2cc(O)ccc21)c1ccc(-c2ccc(O[C@H]3O[C@H](CO)[C@@H](O)[C@H](O)[C@@H]3O)c(Cl)c2)cc1` [GN-FP-4, 3′-Chloro-N-(2-(3-(3′,6′-dihydroxy-3-oxo-3H-spiro[isobenzofuran-1,9′-xanthen]-5-yl)-thioureido)ethyl)-4′-(α-D-mannopyranosyloxy)-biphenyl-4-carboxamide] the Kd ([13]; FimHL^K12, equilibrium fluorescence titration, read-out: Kd) was 0.07 nM, the Kd ([13]; FimHL^K12, pH 7.4, 25 °C, read-out: Kd of GN-FP-4 binding) was 0.07 nM and the “fold higher affinity compared to HM” value ([13]; FimHL^K12 and FimHL^F18) was 16 fold. The Kd [14] was 0.18 nM.
